Patent US20060035820A1, “New derivatives of echinocandine, their preparation process and their use as antifungals” (AVENTIS PHARMA S.A., priority 1999, published 2006)

Target: T1, Glucan Synthase of Candida albicans (Candida albicans, UniProt O13428)
T1 construct: endogenous in cells; host or cells: Candida albicans membrane preparation (method of Tang et al. 1991)
Assay: Inhibition of the Glucan Synthase of Candida albicans
Type: biochemical
Settings: Candida albicans membranes, 14C-UDP glucose, 25° C. for 1 hour
Description: A—Inhibition of the Glucan Synthase of Candida albicans.
Candida albicans membranes were purified according to the process described by Tang et al Antimicrob. Agents Chemother 35, 99-103, 1991. 22.5 μg of membrane proteins are incubated in a mixture of 2 Mm of 14C-UDP glucose (specific activity=0.34 mCi./mmol, 50 μg of α-amylase, 1 Mm of dithiotreitol (DTT), 1 Mm EDTA, 100 Mm NaF, 7 μM of GTP-γ-S, 1M of sucrose and 50 Mm of Tris-HCL (pH 7.8) in a volume of 100 μl. The medium is incubated at 25° C. for 1 hour and the reaction is terminated by adding TCA at a final concentration of 5%. The reaction mixture is transferred onto a pre-humidified glass fibre filter. The filter is washed, dried and its radioactivity is counted. Mulundocandine is used as a positive control. Control of the vehicle is carried out with the same quantity of 1% DMSO.

T1 sequence (O13428 1-1897): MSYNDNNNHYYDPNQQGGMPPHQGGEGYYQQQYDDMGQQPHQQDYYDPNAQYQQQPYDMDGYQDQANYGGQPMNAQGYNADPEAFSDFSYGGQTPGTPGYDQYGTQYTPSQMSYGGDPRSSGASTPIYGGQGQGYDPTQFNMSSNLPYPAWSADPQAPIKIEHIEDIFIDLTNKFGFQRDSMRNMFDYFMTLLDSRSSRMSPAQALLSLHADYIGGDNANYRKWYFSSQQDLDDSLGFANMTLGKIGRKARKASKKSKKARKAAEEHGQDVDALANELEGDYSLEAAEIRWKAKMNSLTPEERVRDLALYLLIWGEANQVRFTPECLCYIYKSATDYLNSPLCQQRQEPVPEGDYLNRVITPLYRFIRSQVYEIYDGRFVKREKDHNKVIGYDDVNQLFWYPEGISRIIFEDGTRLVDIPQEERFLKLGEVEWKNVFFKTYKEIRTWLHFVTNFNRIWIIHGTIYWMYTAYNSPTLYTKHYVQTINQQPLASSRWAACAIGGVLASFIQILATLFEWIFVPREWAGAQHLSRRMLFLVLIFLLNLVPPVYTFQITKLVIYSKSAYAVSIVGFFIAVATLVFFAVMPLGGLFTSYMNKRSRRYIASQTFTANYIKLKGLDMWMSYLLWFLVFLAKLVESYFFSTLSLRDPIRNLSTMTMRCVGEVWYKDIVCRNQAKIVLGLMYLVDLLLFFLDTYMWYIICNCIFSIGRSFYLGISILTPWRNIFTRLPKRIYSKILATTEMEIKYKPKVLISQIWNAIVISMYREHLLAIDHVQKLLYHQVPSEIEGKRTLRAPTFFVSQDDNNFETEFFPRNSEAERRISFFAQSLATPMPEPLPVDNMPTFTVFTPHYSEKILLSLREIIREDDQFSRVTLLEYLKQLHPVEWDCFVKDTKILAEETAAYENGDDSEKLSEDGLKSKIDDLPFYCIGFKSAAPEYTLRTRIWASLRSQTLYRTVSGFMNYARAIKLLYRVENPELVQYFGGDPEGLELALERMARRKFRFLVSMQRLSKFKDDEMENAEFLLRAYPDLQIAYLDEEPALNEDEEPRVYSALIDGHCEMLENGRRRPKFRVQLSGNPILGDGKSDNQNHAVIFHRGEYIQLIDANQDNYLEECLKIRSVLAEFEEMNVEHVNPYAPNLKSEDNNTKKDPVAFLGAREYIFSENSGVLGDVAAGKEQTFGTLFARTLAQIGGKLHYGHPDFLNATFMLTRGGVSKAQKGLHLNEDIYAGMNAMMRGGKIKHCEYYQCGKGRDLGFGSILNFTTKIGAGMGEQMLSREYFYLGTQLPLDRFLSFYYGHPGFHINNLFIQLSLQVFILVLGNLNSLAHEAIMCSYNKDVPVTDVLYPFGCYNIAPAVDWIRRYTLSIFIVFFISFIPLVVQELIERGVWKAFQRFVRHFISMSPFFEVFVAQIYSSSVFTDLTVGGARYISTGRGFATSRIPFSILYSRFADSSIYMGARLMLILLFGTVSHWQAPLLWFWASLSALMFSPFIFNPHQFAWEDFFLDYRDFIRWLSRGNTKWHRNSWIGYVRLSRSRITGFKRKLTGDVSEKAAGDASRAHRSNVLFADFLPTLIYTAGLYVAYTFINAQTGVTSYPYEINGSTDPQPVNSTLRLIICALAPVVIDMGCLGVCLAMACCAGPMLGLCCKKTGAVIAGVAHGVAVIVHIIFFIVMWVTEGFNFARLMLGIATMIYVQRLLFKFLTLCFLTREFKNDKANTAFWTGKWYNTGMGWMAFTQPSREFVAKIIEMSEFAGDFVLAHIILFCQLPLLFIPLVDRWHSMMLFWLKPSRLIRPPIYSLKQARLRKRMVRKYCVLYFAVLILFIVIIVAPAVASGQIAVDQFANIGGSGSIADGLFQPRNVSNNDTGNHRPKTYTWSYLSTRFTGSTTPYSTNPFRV
T1 sequence (O42825 1-195 partner limits assumed): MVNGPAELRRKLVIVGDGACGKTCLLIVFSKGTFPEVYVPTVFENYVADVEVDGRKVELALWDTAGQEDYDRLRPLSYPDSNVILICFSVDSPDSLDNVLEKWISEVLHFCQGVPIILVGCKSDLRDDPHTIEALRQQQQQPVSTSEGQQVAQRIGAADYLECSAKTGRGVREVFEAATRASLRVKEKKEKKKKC

With “Trans 1-[4-[(2-aminocyclo-hexyl)-amino]-N2-[[4″-(pentyloxy)[1,1′:4′,1″-terphenyl]-4-yl)]-carbonyl]-L-ornithine]-4-[4-(4-hydroxyphenyl)-L-threonine]-5-L-serine-echinocandin B trifluoroacetate (isomer A). [Example 3 isomer A]” the “Inhibition of the glucan synthase of Candida albicans (activity in words)” value was “good activity”.
